From patent US10065950B2, “Substituted thiazoles as HIV integrase inhibitors” (Japan Tobacco Inc., priority 2010, dated 2018)

Biological target: HIV-1 pNL4-3 integrase (Human immunodeficiency virus type 1 group M subtype B (isolate NY5) (HIV-1), UniProt P12497)
Assay: Determination of enzyme (HIV integrase) inhibitory activity
Format: biochemical
Settings: calculated from inhibition rate (fluorescence)
Method in brief: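 Full-length pNL4-3 integrase from E. coli (0.75 μM stock) reacted 60 min at 37° C with compound and biotinylated donor DNA bound to streptavidin plates, in MOPS buffer with 5 mM MgCl2 and 10% DMSO. Digoxigenin-labelled target DNA (25 nM stock) then added for 20 min; strand transfer read by peroxidase anti-digoxigenin fluorescence (Ex 325/Em 420 nm).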

| SMILES | IC50 [nM] |
| --- | --- |
| CC(C)N1C[C@@](C)(C(=O)N(C)C)n2cc(-c3ncc(Cc4ccc(F)cc4)s3)c(=O)c(O)c2C1=O [Example 234] | 18 |
| O=C1c2c(O)c(=O)c(-c3nnc(Cc4ccc(F)cc4)s3)cn2CC(CO)N1C1CC1 (centres unmarked) [Example 115] | 12 |
| CCN1C(=O)c2c(O)c(=O)c(-c3ncc(Cc4ccc(F)cc4)s3)cn2C[C@]1(C)C(=O)NC [Example 292] | 7.3 |
| COC[C@@H]1Cn2cc(-c3ncc(Cc4ccc(F)cc4F)s3)c(=O)c(O)c2C(=O)N1C(C)C [Example 168] | 5.8 |
| COC[C@H]1CN([C@H](C)C2CC2)C(=O)c2c(O)c(=O)c(-c3nnc(Cc4ccc(F)cc4)s3)cn21 [Example 302] | 9.9 |
| COCCN(C)C(=O)[C@@]1(C)CN(C(C)C)C(=O)c2c(O)c(=O)c(-c3nnc(Cc4ccc(F)cc4)s3)cn21 [Example 202] | 13 |
| CC(C)N1CC(CNS(C)(=O)=O)n2cc(-c3ncc(Cc4ccc(F)cc4F)s3)c(=O)c(O)c2C1=O (centres unmarked) [Example 78] | 8.9 |
| CC[C@H](C)N1C[C@@H](COC)n2cc(-c3nnc(Cc4ccc(F)cc4)s3)c(=O)c(O)c2C1=O [Example 166] | 12 |
| CC1(C)Cn2cc(-c3nnc(Cc4ccc(F)cc4F)s3)c(=O)c(O)c2C(=O)N1C1CCOC1 (centres unmarked) [Example 70] | 8.9 |
| CN(C)C(=O)[C@]1(C)CN(C)C(=O)c2c(O)c(=O)c(-c3ncc(Cc4ccc(F)cc4)s3)cn21 [Example 264] | 8.5 |
| COCCOC[C@H]1CN(C(C)C)C(=O)c2c(O)c(=O)c(-c3nnc(Cc4ccc(F)c(F)c4)s3)cn21 [Example 155] | 10 |
| CC(=O)N(C)C[C@@]1(C)CN(C(C)C)C(=O)c2c(O)c(=O)c(-c3nnc(Cc4ccc(F)cc4F)s3)cn21 [Example 197] | 14 |
| CCOC[C@H]1CN(C(C)C)C(=O)c2c(O)c(=O)c(-c3ncc(Cc4ccc(F)cc4)s3)cn21 [Example 141] | 8 |
| CCN1C(=O)c2c(O)c(=O)c(-c3ncc(Cc4ccc(F)cc4)s3)cn2C[C@H]1C(C)C [Example 329] | 6.1 |
| COC[C@@H]1[C@H](C)n2cc(-c3ncc(Cc4ccc(F)cc4)s3)c(=O)c(O)c2C(=O)N1C(C)C [Example 247] | 10 |
| CCN1C(=O)c2c(O)c(=O)c(-c3nnc(Cc4ccc(F)cc4F)s3)cn2C[C@H]1COC [Example 102] | 7.1 |
| CCN1C[C@@H](COC)n2cc(-c3nnc(Cc4ccc(F)cc4F)s3)c(=O)c(O)c2C1=O [Example 89] | 8 |
| CO[C@H]1CCN(C(=O)[C@@]2(C)CN(C(C)C)C(=O)c3c(O)c(=O)c(-c4nnc(Cc5ccc(F)cc5)s4)cn32)C1 [Example 212] | 14 |
| CC(C)N1CC(C)(CO)n2cc(-c3ncc(Cc4ccc(F)cc4)s3)c(=O)c(O)c2C1=O (centres unmarked) [Example 111] | 20 |
| CNC(=O)C1(C)CN(C(C)C)C(=O)c2c(O)c(=O)c(-c3ncc(Cc4ccc(F)cc4F)s3)cn21 (centres unmarked) [Example 29] | 10 |
| COCCOC[C@H]1CN(C(C)C)C(=O)c2c(O)c(=O)c(-c3nnc(Cc4ccc(F)cc4F)s3)cn21 [Example 134] | 16 |
| COC[C@H]1CN([C@@H](C)C(C)C)C(=O)c2c(O)c(=O)c(-c3nnc(Cc4ccc(F)cc4F)s3)cn21 [Example 136] | 11 |
| CCOc1cc(F)ccc1Cc1nnc(-c2cn3c(c(O)c2=O)C(=O)N(C(C)C)C[C@@H]3COC)s1 [Example 219] | 15 |

| SMILES | IC50 [nM] |
| --- | --- |
| COC[C@@H]1Cn2cc(-c3nnc(Cc4ccc(F)cc4F)s3)c(=O)c(O)c2C(=O)N1C1CCC1 [Example 93] | 7.8 |
| CO[C@H](C)[C@H]1CN(C(C)C)C(=O)c2c(O)c(=O)c(-c3ncc(Cc4ccc(F)cc4)s3)cn21 [Example 386] | 15 |
| COCCOC[C@H]1Cn2cc(-c3nnc(Cc4ccc(F)cc4F)s3)c(=O)c(O)c2C(=O)N1C(C)C [Example 60] | 17 |
| CCN1C(=O)c2c(O)c(=O)c(-c3nnc(CCc4ccc(F)cc4F)s3)cn2C[C@H]1COC [Example 300] | 9 |
| COCCOC[C@@H]1Cn2cc(-c3nnc(Cc4ccc(F)cc4F)s3)c(=O)c(O)c2C(=O)N1CC(C)(C)C [Example 129] | 12 |
| CCOCCOC[C@H]1CN(C(C)C)C(=O)c2c(O)c(=O)c(-c3nnc(Cc4ccc(F)cc4F)s3)cn21 [Example 143] | 6.9 |
| CCN1C(=O)c2c(O)c(=O)c(-c3ncc(Cc4ccc(F)cc4)s3)cn2C[C@@]1(C)C(=O)N(C)C [Example 253] | 7.7 |
| COC[C@@H]1Cn2cc(-c3nnc(CCc4ccc(F)cc4F)s3)c(=O)c(O)c2C(=O)N1C(C)C [Example 317] | 9.8 |
| COCC1CN(C(C)C)C(=O)c2c(O)c(=O)c(-c3nnc(Cc4ccc(F)cc4F)s3)cn21 (centres unmarked) [Example 18] | 8.2 |
| CN(C)C(=O)[C@@]1(C)CN(C(C)(C)C)C(=O)c2c(O)c(=O)c(-c3nnc(Cc4ccc(F)cc4)s3)cn21 [Example 181] | 14 |
| CC[C@@H]1Cn2cc(-c3ncc(Cc4ccc(F)cc4)s3)c(=O)c(O)c2C(=O)N1CC [Example 327] | 5.9 |
| COC1CN(C(=O)CC2CN(C(C)C)C(=O)c3c(O)c(=O)c(-c4ncc(Cc5ccc(F)cc5F)s4)cn32)C1 (centres unmarked) [Example 272] | 8.9 |
| COCCOCC1(C)CN(C(C)C)C(=O)c2c(O)c(=O)c(-c3ncc(Cc4ccc(F)cc4)s3)cn21 (centres unmarked) [Example 110] | 23 |
| CC(C)N1CC(C)(C(=O)O)n2cc(-c3ncc(Cc4ccc(F)cc4F)s3)c(=O)c(O)c2C1=O (centres unmarked) [Example 24] | 23 |
| COC[C@H]1[C@@H](C)n2cc(-c3nnc(Cc4ccc(F)cc4)s3)c(=O)c(O)c2C(=O)N1C(C)C [Example 353] | 13 |
| C[C@@]1(C(=O)N2CCC2)CN(C2CC2)C(=O)c2c(O)c(=O)c(-c3ncc(Cc4ccc(F)cc4)s3)cn21 [Example 268] | 15 |
| COCC1(C)CN(C(C)C)C(=O)c2c(O)c(=O)c(-c3ncc(Cc4ccc(F)cc4F)s3)cn21 (centres unmarked) [Example 121] | 16 |
| COCCOC[C@H]1CN(C(C)C)C(=O)c2c(O)c(=O)c(-c3ncc(Cc4ccc(F)cc4F)s3)cn21 [Example 56] | 10 |
| COCC1Cn2cc(-c3ncc(Cc4ccc(F)cc4F)s3)c(=O)c(O)c2C(=O)N1C(C)C (centres unmarked) [Example 61] | 6.6 |
| CCNC(=O)C1(C)CN(C(C)C)C(=O)c2c(O)c(=O)c(-c3ncc(Cc4ccc(F)cc4F)s3)cn21 (centres unmarked) [Example 27] | 10 |
| CO[C@H](C)[C@@H]1CN(C(C)C)C(=O)c2c(O)c(=O)c(-c3ncc(Cc4ccc(F)cc4)s3)cn21 [Example 387] | 11 |
| COCCOC[C@H]1Cn2cc(-c3ncc(Cc4ccc(F)cc4F)s3)c(=O)c(O)c2C(=O)N1CC(C)C [Example 58] | 17 |
| CC(C)CNC(=O)CC1CN(C(C)C)C(=O)c2c(O)c(=O)c(-c3ncc(Cc4ccc(F)cc4F)s3)cn21 (centres unmarked) [Example 40] | 13 |

| SMILES | IC50 [nM] |
| --- | --- |
| CC(C)N1C(=O)c2c(O)c(=O)c(-c3nnc(Cc4ccc(F)cc4F)s3)cn2C[C@H]1CNC(=O)C(C)(C)C [Example 138] | 11 |
| CCNC(=O)C1(C)CN(CC)C(=O)c2c(O)c(=O)c(-c3ncc(Cc4ccc(F)cc4F)s3)cn21 (centres unmarked) [Example 162] | 7.1 |
| CC(C)N1C[C@](C)(C(=O)N2CCC(=O)C2)n2cc(-c3ncc(Cc4ccc(F)cc4)s3)c(=O)c(O)c2C1=O [Example 290] | 14 |
| COC1CN(C(=O)[C@@]2(C)CN([C@H](C)C3CC3)C(=O)c3c(O)c(=O)c(-c4ncc(Cc5ccc(F)cc5)s4)cn32)C1 [Example 281] | 16 |
| CC(C)N1CC(C)(C(=O)O)n2cc(-c3ncc(Cc4ccc(F)cc4)s3)c(=O)c(O)c2C1=O (centres unmarked) [Example 112] | 19 |
| CCC(=O)NCC1CN(C(C)C)C(=O)c2c(O)c(=O)c(-c3ncc(Cc4ccc(F)cc4F)s3)cn21 (centres unmarked) [Example 68] | 9.8 |
| CC(C)N1C[C@H](C)n2cc(-c3nnc(Cc4ccc(F)cc4F)s3)c(=O)c(O)c2C1=O [Example 149] | 5.9 |
| COCC1CN(CC(C)C)C(=O)c2c(O)c(=O)c(-c3nnc(Cc4ccc(F)cc4F)s3)cn21 (centres unmarked) [Example 63] | 8.3 |
| CO[C@H]1CCN(C(=O)[C@@]2(C)CN(C(C)C)C(=O)c3c(O)c(=O)c(-c4ncc(Cc5ccc(F)cc5)s4)cn32)C1 [Example 214] | 16 |
| COC[C@@H]1[C@@H](C)n2cc(-c3nnc(Cc4ccc(F)cc4)s3)c(=O)c(O)c2C(=O)N1C(C)C [Example 304] | 9.1 |
| C[C@@H](C1CC1)N1C[C@](C)(C(=O)N(C)C)n2cc(-c3ncc(Cc4ccc(F)cc4)s3)c(=O)c(O)c2C1=O [Example 275] | 14 |
| CC(C)N1CC(C)(C(=O)N2CCCC2)n2cc(-c3ncc(Cc4ccc(F)cc4)s3)c(=O)c(O)c2C1=O (centres unmarked) [Example 109] | 21 |
| CN(C)C(=O)CC1CN(C2CC2)C(=O)c2c(O)c(=O)c(-c3ncc(Cc4ccc(F)cc4F)s3)cn21 (centres unmarked) [Example 164] | 6.5 |
| CCN1C[C@H](COC)n2cc(-c3nnc(Cc4ccc(F)cc4F)s3)c(=O)c(O)c2C1=O [Example 97] | 6.6 |
| CC(C)N1C(=O)c2c(O)c(=O)c(-c3nnc(Cc4ccc(F)cc4F)s3)cn2C[C@H]1CO [Example 133] | 7.4 |
| CC(=O)NCC1CN(C(C)C)C(=O)c2c(O)c(=O)c(-c3ncc(Cc4ccc(F)cc4F)s3)cn21 (centres unmarked) [Example 67] | 7.6 |
| CNC(=O)CC1Cn2cc(-c3nnc(Cc4ccc(F)cc4F)s3)c(=O)c(O)c2C(=O)N1C(C)C (centres unmarked) [Example 81] | 7.5 |
| CC(C)N1CC(CO)n2cc(-c3ncc(Cc4ccc(F)cc4F)s3)c(=O)c(O)c2C1=O (centres unmarked) [Example 19] | 8.1 |
| COCCOC[C@@H]1Cn2cc(-c3nnc(Cc4ccc(F)cc4)s3)c(=O)c(O)c2C(=O)N1C1CCC1 [Example 84] | 11 |
| CC(=O)NC[C@@H]1Cn2cc(-c3nnc(Cc4ccc(F)cc4F)s3)c(=O)c(O)c2C(=O)N1C(C)C [Example 137] | 8.6 |
| COC[C@H]1CN(C(C)C)C(=O)c2c(O)c(=O)c(-c3nnc(Cc4ccc(C(F)(F)F)cc4)s3)cn21 [Example 244] | 74 |
| CCN1C[C@](C)(C(=O)N2CCCC2)n2cc(-c3nnc(Cc4ccc(F)cc4)s3)c(=O)c(O)c2C1=O [Example 200] | 9.6 |
